Here are results for 1 molecule from article PMC8455218, “A Cornflower Extract Containing N-Feruloylserotonin Reduces Inflammation in Human Skin by Neutralizing CCL17 and CCL22 and Inhibiting COX-2 and 5-LOX” (Mediators of Inflammation, 2021).

For this assay, the target named is T1, Macrophage-Derived Chemokine (MDC/CCL22) (Homo sapiens, UniProt O00626).
T1 sequence (O00626 25-93): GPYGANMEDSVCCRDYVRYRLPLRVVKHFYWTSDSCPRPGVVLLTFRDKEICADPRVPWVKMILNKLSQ
Briefly: TRIC-r calcium mobilization, Indo-1, EGFP-CCR4+Gqi5+ HEK cells. In kind it is cell-based. Background: Calcium assays in cells follow changes in intracellular calcium, usually with a dye or a luminescent sensor.

Turning to `COc1cc(/C=C/C(=O)NCCc2c[nH]c3ccc(O)cc23)ccc1O` [N-Feruloylserotonin], the IC50 (in general, the concentration that inhibits the measured activity by half) is 15 µM.
